Drawing on the supplement of paper PMC10307832, this text covers relative viability for one cell line.

Common to all, as to test: relative viability (nuclei count vs DMSO), 5 days (fraction); higher = more cells survive
Compound in the test “Axitinib + Lapatinib”: CNC(=O)c1ccccc1Sc1ccc2c(/C=C/c3ccccn3)n[nH]c2c1 [Axitinib] + CS(=O)(=O)CCNCc1ccc(-c2ccc3ncnc(Nc4ccc(OCc5cccc(F)c5)c(Cl)c4)c3c2)o1 [Lapatinib] (partner 2 µM)
Put shortly: (§1)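 Lung cancer cell lines, seeded in 1536-well plates, were treated the following day by pin tool with a single drug or with five library-drug doses (not always all listed) in √10 steps on top of a fixed anchor-drug dose. Cells were fixed and nuclei stained in one step after 5 days, and nuclei were counted. Relative viability is the nuclei count for treated wells divided by that for vehicle wells, reported as medians of duplicate plates.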

Compound in test [1]: CC1=CC=C(C=C1)C(=O)CN2C3=C(CCCC3)SC2=N [Pifithrin_alpha] + CC(=O)c1c(C)c2cnc(Nc3ccc(N4CCNCC4)cn3)nc2n(C2CCCC2)c1=O [Palbociclib] (partner 0.5 µM)
Put shortly: as §1

Compound in test [2]: CC1=CC=C(C=C1)C(=O)CN2C3=C(CCCC3)SC2=N [Pifithrin_alpha] + Nc1ncn([C@H]2C[C@H](O)[C@@H](CO)O2)c(=O)n1 [Decitabine] (partner 2 µM)
An outline of the steps: as §1

Compound in test [3]: CC1=CC=C(C=C1)C(=O)CN2C3=C(CCCC3)SC2=N [Pifithrin_alpha] + CC(C)C[C@H](NC(=O)[C@H](Cc1ccccc1)NC(=O)c1cnccn1)B(O)O [Bortezomib] (partner 0.002 µM)
Put shortly: as §1

On to NCI-H650, for which the relative viability with Axitinib + Lapatinib (first compound 0.005 µM) turned out to be 0.792; with Axitinib + Lapatinib (first compound 0.01581 µM), 0.837; with Axitinib + Lapatinib (first compound 0.05 µM) it was 1.08; with Axitinib + Lapatinib (first compound 0.1581 µM) it was 0.919; with Axitinib + Lapatinib (first compound 0.5 µM), 0.932; in test [1] (first compound 3.162 µM), 0.371. Moreover, the relative viability in test [1] (first compound 10 µM) is 0.328; in test [1] (first compound 31.62 µM) it was 0.204; in test [1] (first compound 100 µM), 0.327; in test [2] (first compound 3.162 µM), 0.323; in test [2] (first compound 10 µM), 0.335; in test [2] (first compound 31.62 µM), 0.235. Besides, the relative viability in test [2] (first compound 100 µM) is 0.275; in test [3] (first compound 3.162 µM), 1; in test [3] (first compound 10 µM), 0.804; in test [3] (first compound 31.62 µM) it was 0.51; in test [3] (first compound 100 µM), 0.725.
